Test results from article PMC4361900 (Journal of medicinal chemistry, 2013).

How the values were obtained:
MAO A = molecular target: T1, MAO A (Homo sapiens, UniProt P21397); assay: MAO A inhibition, kynuramine fluorescence assay; format: biochemical
T1 sequence (P21397 1-527): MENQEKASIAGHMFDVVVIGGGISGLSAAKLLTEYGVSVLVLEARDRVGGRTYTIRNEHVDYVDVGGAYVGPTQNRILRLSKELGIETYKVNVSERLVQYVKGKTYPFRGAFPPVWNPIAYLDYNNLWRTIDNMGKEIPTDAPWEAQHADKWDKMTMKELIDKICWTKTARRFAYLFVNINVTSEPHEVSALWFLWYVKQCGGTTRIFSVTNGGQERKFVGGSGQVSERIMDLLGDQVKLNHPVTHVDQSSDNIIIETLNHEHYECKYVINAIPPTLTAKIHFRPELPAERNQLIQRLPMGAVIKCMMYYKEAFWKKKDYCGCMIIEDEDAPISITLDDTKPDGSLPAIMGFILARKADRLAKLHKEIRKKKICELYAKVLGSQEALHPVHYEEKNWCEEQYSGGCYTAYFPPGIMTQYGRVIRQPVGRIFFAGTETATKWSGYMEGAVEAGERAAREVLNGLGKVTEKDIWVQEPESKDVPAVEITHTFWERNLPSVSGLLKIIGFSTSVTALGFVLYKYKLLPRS

MAO B = molecular target: T2, MAO B (Homo sapiens, UniProt P27338); assay: MAO B inhibition, kynuramine fluorescence assay; format: biochemical; settings: for Inhibition of MAO B, % inhibition @ conc.: @ 500 µM
T2 sequence (P27338 1-520): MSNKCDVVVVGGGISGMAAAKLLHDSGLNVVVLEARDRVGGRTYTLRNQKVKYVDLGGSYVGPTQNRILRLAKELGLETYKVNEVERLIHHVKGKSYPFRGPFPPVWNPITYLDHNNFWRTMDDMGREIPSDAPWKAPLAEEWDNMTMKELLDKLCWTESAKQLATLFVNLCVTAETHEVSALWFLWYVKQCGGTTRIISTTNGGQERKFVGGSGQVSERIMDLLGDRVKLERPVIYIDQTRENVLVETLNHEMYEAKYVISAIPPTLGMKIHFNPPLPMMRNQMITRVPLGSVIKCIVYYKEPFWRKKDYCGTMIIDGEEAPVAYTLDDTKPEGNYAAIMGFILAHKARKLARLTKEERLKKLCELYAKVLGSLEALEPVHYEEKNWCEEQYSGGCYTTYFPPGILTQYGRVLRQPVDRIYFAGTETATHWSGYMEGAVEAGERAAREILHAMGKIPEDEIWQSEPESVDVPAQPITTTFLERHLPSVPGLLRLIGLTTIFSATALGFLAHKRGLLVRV

H3K4me2 in MCF7 cells = assay: Western blot of H3K4 dimethylation in MCF7 cells; format: cell-based; settings: 24 hours incubation
[1] = Solubility in cell culture media; format: physicochemical
LSD1 [2] = molecular target: T3, LSD1 (Homo sapiens, UniProt O60341); assay: LSD1 in-vitro inhibition, horseradish peroxidase; format: biochemical; settings: for Inhibition of LSD1, % inhibition @ conc.: @ 100 µM
LSD1 [3] = molecular target: T3, LSD1; settings: MAO inhibitors; cited from earlier work

Structure (SMILES)	Inhibition of LSD1, % inhibition @ conc. (LSD1 [2])	other results
C#CCNCCCC[C@H](NC(=O)c1ccccc1)C(=O)OC(C)(C)C [1a]	–	Inhibition of MAO A, % inhibition @ conc. (MAO A; @ 100 µM): n.i. @ 100 µM; Inhibition of MAO B, % inhibition @ conc. (MAO B): n.i. ^a @ 500 µM
C#CCN(C)CCCC[C@H](NC(=O)OCc1ccccc1)C(=O)OCc1ccccc1 [2b]	–	Inhibition of MAO B, % inhibition @ conc. (MAO B): n.i. @ 500 µM
C#CCN(C)CCCOc1cccc(NC(=O)c2ccccc2)c1 [4b]	–	H3K4 dimethylation level (western blot) (H3K4me2 in MCF7 cells): increased levels of H3K4 dimethylation; Solubility in cell culture media [1]: soluble
C#CCNCC(O)COc1ccc(-c2ccccc2)cc1 (stereo not drawn) [5a, 3-(Prop-2-ynylamino)-2-hydroxy-1-(biphenyl-4-yloxy)propane]	–	H3K4 dimethylation level (western blot) (H3K4me2 in MCF7 cells): increased levels of H3K4 dimethylation; Solubility in cell culture media [1]: soluble
C#CCN(C)CC(O)COc1ccc(-c2ccccc2)cc1 (stereo not drawn) [5b]	–	Inhibition of MAO A, % inhibition @ conc. (MAO A; @ 10 µM): n.i. @ 10 µM
C#CCN(C)CC(O)COc1ccc2ccccc2c1 (stereo not drawn) [5d]	–	MAO-B inhibition in words (MAO B): only limited inhibition
C#CCNCC(O)COc1ccc(-c2ccc(Br)cc2)cc1 (stereo not drawn) [5i]	n.i. @ 100 µM	–
C#CCNCC(O)COc1ccc(-c2ccc(Cl)cc2Cl)cc1 (stereo not drawn) [5j]	n.i. @ 100 µM	–
C#CCNCC(O)COc1ccc(-c2cc(Cl)cc(Cl)c2)cc1 (stereo not drawn) [5k]	n.i. @ 100 µM	–
C#CCN(C)CC(O)COc1ccc(C(=O)OC)cc1 (stereo not drawn) [5l]	n.i. @ 100 µM	–
C#CCNCC(O)COc1ccc(C(=O)OC)cc1 (stereo not drawn) [5m]	n.i. @ 100 µM	–
C#CCN(C)CC(O)COc1ccc(CC(=O)OC)cc1 (stereo not drawn) [5n]	n.i. @ 100 µM	–
C#CCNCC(O)COc1ccc(CC(=O)OC)cc1 (stereo not drawn) [5o]	n.i. @ 100 µM	–
C#CCN(C)CC(O)COc1ccc(CCC(=O)OC)cc1 (stereo not drawn) [5p]	n.i. @ 100 µM	–
C#CCNCC(O)COc1ccc(C(N)=O)cc1 (stereo not drawn) [5q]	n.i. @ 100 µM	–
C#CCN(C)CC(O)COc1ccc(C(N)=O)cc1 (stereo not drawn) [5r]	n.i. @ 100 µM	–
C#CCNCC(O)CNc1ccc(-c2ccccc2)cc1 (stereo not drawn) [6a]	n.i. @ 100 µM	LSD1 inhibition in words (LSD1 [2]): inactive
C#CCNCC(O)CN(C)c1ccc(-c2ccccc2)cc1 (stereo not drawn) [6b, 1-(N-Methyl-4-phenylanilino)-3-(prop-2-ynylamino)propan-2-ol]	n.i. @ 100 µM	LSD1 inhibition in words (LSD1 [2]): inactive
OC(CNC1CC1)COc1ccc(-c2ccccc2)cc1 (stereo not drawn) [7a]	n.i. @ 100 µM	–
OC(CNC1CC1)COc1ccc2ccccc2c1 (stereo not drawn) [7b]	n.i. @ 100 µM	–
C#CCN(C)[C@H](C)Cc1ccccc1 [deprenyl]	–	Inhibitory activity on LSD1 (LSD1 [3]): millimolar range
C#CCN(C)Cc1ccccc1 [pargyline]	–	Inhibitory activity on LSD1 (LSD1 [3]): millimolar range
